Patent US20230000842A1, “METHODS OF TREATING CARTILAGE DISORDERS THROUGH INHIBITION OF CLK AND DYRK” (SAMUMED, LLC, priority 2019, published 2023)

How the values were obtained:
CLK2 kinase = CLK2 kinase (Homo sapiens, UniProt P49760); test: CLK2 kinase activity assay (Z-lyte FRET); type: biochemical; conditions: Z-lyte Ser/Thr 6 peptide, 60 μM ATP, 1 h at room temperature;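 also: FRET read-out as coumarin to fluorescein emission ratio, unphosphorylated peptide as 0% and phosphorylated peptide as 100% controls, duplicate reactions, non-linear regression fit of dose-response curves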
CLK3 kinase = CLK3 kinase (Homo sapiens, UniProt P49761); test: CLK3 kinase activity assay (Z-lyte FRET); type: biochemical; conditions: Z-lyte Ser/Thr 18 peptide, 156 μM ATP, 1 h at room temperature;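 also: kinase activity read as coumarin/fluorescein emission ratio by FRET, unphosphorylated peptide as 0% and phosphorylated peptide as 100% control, values from non-linear regression of dose-response curves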
[1] = system: MMP-3 levels in supernatant of chondrocytes stimulated with IL1-β; test: Chondrocyte protection assay compound screening (MMP-3 LANCE Ultra); type: cell-based, human; conditions: Homo sapiens, Chondrocyte, IL1-β 10 ng/mL overnight, 11-point curves from 3 μM to 0.05 nM; for Emax: read-out: Maximum % Inhibition
Procedure: Human Chondrocyte Cell Culture: Primary human chondrocytes were purchased from Lonza (Walkersville, Md.) and expanded in Chondrocyte Growth Media (CGM, Lonza). Cells between passage 2 and 5 were used for the experiments.
Chondrocytes were plated at 8,000 cells/well in 40 μL/well Chondrocyte Differentiation Medium (Lonza; 500 mL Basal Medium, 25 mL FBS, 0.5 mL GA-1000, 1 mL R3-IGF, 2.5 mL bFGF, 0.5 mL Transferrin, and 1 mL Insulin). After 2 hours of incubation at 37° C. and 5% CO2, IL1-β (Peprotech, Rocky Hill, N.J.) was added to a final concentration of 10 ng/mL. 11 wells in 1 row were left unstimulated for normalization and calculating EC50 values. Cells were incubated at 37° C. and 5% CO2 overnight. Assay plates are spun, 25 μl of supernatant media was collected using (S2 pipettor, Apricot Designs). Cells were lysed using 10 μL of (Cell Titer-Glo, Promega). Luminescent signal detected using an En Vision Multilabel reader (Perkin Elmer). MMP-3 levels were measured in supernatant. Supernatant diluted 1:7 in DMEM. MMP-3 levels in the supernatant were measured using MMP-3 LANCE Ultra detection kit (Perkin Elmer). Briefly, 5 μL of diluted supernatant was transferred to low-volume 384 well plates using (S2 pipettor, Apricot Designs). A standard curve was prepared using MMP-3 analyte (range […]). 1.7 μL of 8× mix of Eu-labelled anti-MMP-3 antibody and ULight labelled anti-MMP-3 antibody was added to the plates using Mantis Liquid handler (Formulatrix). Plates were incubated overnight at room temperature. LANCE signal was detected using an EnVision Multilabel reader (Perkin Elmer), equipped with TR-FRET using excitation wavelength of 320 nm and two emission wavelengths of 615 nm and 665 nm. Data was analyzed according to the kit protocol, using the ratio of […] and the standard curve values were used to calculate the amount of MMP3 in the […] (in pg/ml). The normalized averages (fold change over IL1-β stimulated) for each compound concentration were calculated. EC50 and maximum % inhibition values were calculated using the dose-response nonlinear regression curve-fit in Dotmatics.

[2] = system: Wnt pathway activity (SW480 colon carcinoma cells stably expressing the Sp5-Luc reporter); test: Wnt pathway activity screening assay (Sp5-Luc reporter gene assay); conditions: Homo sapiens, SW480, Table 4; SW480 cells stably expressing Sp5-Luc reporter, 10-point dose-response from 10 μM, 36 to 48 hours
[3] = system: primary human mesenchymal stem cells (hMSCs); test: Chondrogenesis screening using primary human mesenchymal stem cells; type: cell-based; conditions: Homo sapiens, Mesenchymal stem cells, hMSC chondrogenesis; maximum activity relative to TGF-β3 (10 ng/mL) positive control; read-out: Max. Activity as % TGF-β3 activity
How it was run: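 Derived values are EC50 for 50% chondrogenesis, maximal activity and the dose giving it. These come from nodule area in passage 3–6 primary hMSCs, expressed as fold change over the mean of 3 same-plate DMSO wells, 2–3 replicates per concentration. TGF-β3 served as positive control.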

CLK3 kinase, sequence (P49761 whole entry): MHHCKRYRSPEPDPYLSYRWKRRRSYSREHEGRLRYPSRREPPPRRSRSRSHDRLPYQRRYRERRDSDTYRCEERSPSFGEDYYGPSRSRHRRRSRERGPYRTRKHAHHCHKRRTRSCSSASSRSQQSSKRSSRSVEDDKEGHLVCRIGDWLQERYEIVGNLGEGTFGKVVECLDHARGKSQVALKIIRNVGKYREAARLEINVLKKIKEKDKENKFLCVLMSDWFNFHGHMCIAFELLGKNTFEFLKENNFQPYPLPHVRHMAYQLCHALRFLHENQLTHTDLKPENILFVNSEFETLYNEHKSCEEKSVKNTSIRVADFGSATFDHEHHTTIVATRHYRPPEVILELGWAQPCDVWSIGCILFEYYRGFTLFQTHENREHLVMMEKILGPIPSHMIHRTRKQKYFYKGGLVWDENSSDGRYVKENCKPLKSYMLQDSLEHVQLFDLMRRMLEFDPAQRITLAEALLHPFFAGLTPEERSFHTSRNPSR
CLK2 kinase, sequence (P49760 whole entry): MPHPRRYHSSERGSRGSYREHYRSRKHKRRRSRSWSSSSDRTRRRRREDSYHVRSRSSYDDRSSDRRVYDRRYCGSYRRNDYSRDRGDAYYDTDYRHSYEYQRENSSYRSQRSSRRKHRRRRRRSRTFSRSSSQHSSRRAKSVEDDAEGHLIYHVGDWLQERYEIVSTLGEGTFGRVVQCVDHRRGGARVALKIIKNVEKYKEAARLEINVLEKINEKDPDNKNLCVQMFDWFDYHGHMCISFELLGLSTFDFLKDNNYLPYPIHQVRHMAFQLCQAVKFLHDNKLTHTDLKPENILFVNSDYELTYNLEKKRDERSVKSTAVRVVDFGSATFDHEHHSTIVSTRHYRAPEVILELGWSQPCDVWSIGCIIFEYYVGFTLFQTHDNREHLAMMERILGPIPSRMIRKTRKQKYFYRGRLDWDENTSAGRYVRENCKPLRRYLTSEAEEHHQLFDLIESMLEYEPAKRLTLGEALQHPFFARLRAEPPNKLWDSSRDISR

| EC50 (CLK2 kinase) | EC50 (CLK3 kinase) | EC50 [2] | SMILES | EC50 [1] | Emax [1] | Emax [3] |
| --- | --- | --- | --- | --- | --- | --- |
| 23 nM | 5300 nM | 20.5 nM | O=C(Nc1c[nH]nc1C(=O)Nc1cccnc1)c1cccnc1 [compound 1] | 38.9 nM | 100% |  |
| 24 nM | 3700 nM | 119 nM | O=C(Nc1c[nH]nc1C(=O)Nc1ccc(OCCN2CCCC2)cc1)c1cccnc1 [compound 3] | 811 nM | 23.7% |  |
| 57 nM | 6610 nM | 123 nM | COc1cncc(C(=O)Nc2c[nH]nc2C(=O)Nc2ccc(CN(C)C)cc2)c1 [compound 4] | ≥ 3000 nM | 99.9% |  |
| 27 nM | 6160 nM | 613 nM | COc1cncc(C(=O)Nc2c[nH]nc2C(=O)Nc2ccc3c(c2)CCNC3)c1 [compound 8] | 342 nM | 76% |  |
| 45 nM | 6090 nM | 558 nM | COc1cncc(C(=O)Nc2c[nH]nc2C(=O)Nc2ccc3c(c2)CCN(C)C3)c1 [compound 9] | ≥ 3000 nM | 65.6% |  |
| 9 nM | 5150 nM | 2.5 nM | O=C(Nc1c[nH]nc1C(=O)Nc1ccc(N2CCCC2)nc1)c1cncc(OC2CCNCC2)c1 [compound 11] | ≥ 3000 nM | 80% |  |
| 14 nM | 3500 nM | 662 nM | O=C(Nc1c[nH]nc1C(=O)Nc1ccc(N2CCCCC2)nc1)c1cncc(OC2CCNCC2)c1 [compound 13] | ≥ 3000 nM | 71% |  |
| 2 nM | 485 nM | 2.9 nM | O=C(Nc1c[nH]nc1-c1nc2c(-c3cccc(F)c3)cccc2[nH]1)c1cccnc1 [compound 15] | 76.5 nM | 100% |  |
| 20 nM | 3990 nM | 2150 nM | Cc1[nH]nc(C(=O)Nc2ccc(CN3CCCC3)cc2)c1/C=C/c1cccnc1 [compound 18] | 1050 nM | 25.5% |  |
| 6 nM | 967 nM | 1850 nM | O=C(Nc1ccc(OCCN2CCCC2)cc1)c1n[nH]cc1/C=C/c1cccnc1 [compound 19] | ≥ 3000 nM | 31.1% |  |
| 5 nM | 563 nM | 1650 nM | O=C(Nc1ccc(N2CCNCC2)nc1)c1n[nH]cc1/C=C/c1cccnc1 [compound 20] | 0.2 nM | 72.6% |  |
| 4 nM | 733 nM | 964 nM | CN1CCC(Oc2ccc(NC(=O)c3n[nH]cc3/C=C/c3cccnc3)cn2)CC1 [compound 21] | ≥ 3000 nM | 92.6% |  |
| 7 nM | 2330 nM | > 10000 nM | Cc1[nH]nc(C(=O)Nc2ccc(OC3CCN(C)CC3)nc2)c1/C=C/c1cccnc1 [compound 22] | 17.8 nM | 64.6% |  |
|  | 5250 nM | 1640 nM | Cc1n[nH]c2ccc(-c3cncc(OCCN)c3)cc12 [compound 34] | ≥ 3000 nM | 12.9% |  |
|  | 3 nM | 310 nM | c1cncc(-c2ccc3[nH]nc(-c4cc5c(-c6cccnc6)cncc5[nH]4)c3c2)c1 [compound 341] | 1.1 nM | 58.2% | 58.2% |
| 1 nM | 14 nM |  | CN1CCC(Oc2ccc(C(=O)Nc3cc4cc(-c5cnn(C)c5)ccc4cn3)cc2)CC1 [compound 541] | ≥ 3000 nM | 95.6% | 25.4% |
| 2 nM | 38 nM |  | Cn1cc(-c2ccc3cnc(NC(=O)c4ccnc(OC5CNC5)c4)cc3c2)cn1 [compound 556] | 154 nM | 100% |  |
| 2 nM | 39 nM |  | Cn1cc(-c2ccc3cnc(NC(=O)c4ccc5c(c4)CNCC5)cc3c2)cn1 [compound 557] | 1630 nM | 50.5% |  |

| EC50 (CLK2 kinase) | EC50 (CLK3 kinase) | EC50 [2] | SMILES | EC50 [1] | Emax [1] | Emax [3] |
| --- | --- | --- | --- | --- | --- | --- |
| 3 nM | 49 nM |  | Cn1cc(-c2ccc3cnc(NC(=O)c4ccc5c(c4)ncn5C)cc3c2)cn1 [compound 558] | ≥ 3000 nM | 46.9% |  |
| 4 nM | 66 nM |  | Cn1cc(-c2ccc3cnc(NC(=O)C4=CNC5C=CC=CC5=C4)cc3c2)cn1 (stereo not drawn) [compound 559] | 19.1 nM | 41.2% |  |
| 4 nM | 85 nM |  | Cn1cc(-c2ccc3cnc(NC(=O)c4ccc5cnccc5c4)cc3c2)cn1 [compound 560] | ≥ 3000 nM | 63.6% |  |
| 6 nM | 71 nM |  | CN1CCN(c2cc(C(=O)Nc3cc4cc(-c5cnn(C6CC6)c5)ccc4cn3)ccn2)CC1 [compound 565] | 12.2 nM | 76.6% |  |
| 8 nM | 261 nM |  | Cn1ncc(-c2ccc3cnc(NC(=O)c4ccc(OC(F)F)cc4)cc3c2)c1CO [compound 567] | 1370 nM | 69.8% |  |
| 3 nM | 44 nM |  | CN1CCC2(CC1)CN(c1cc(C(=O)Nc3cc4cc(-c5cnn(C)c5CO)ccc4cn3)ccn1)C2 [compound 568] | ≥ 3000 nM | 42.7% |  |
| 2 nM | 15 nM |  | Cn1ncc(-c2ccc3cnc(NC(=O)c4cccc(CN5CCCC5)c4)cc3c2)c1CN1CCCCC1 [compound 572] | 1190 nM | 96.5% | 27.6% |
| 2 nM | 8 nM |  | Cn1ncc(-c2ccc3cnc(NC(=O)c4ccnc(N5CCOCC5)c4)cc3c2)c1CN1CCOCC1 [compound 573] | ≥ 3000 nM | 70% |  |
| 2 nM | 26 nM |  | CC(C)N1CCC(Oc2cc(C(=O)Nc3cc4cc(-c5cnn6c5CCNC6)ccc4cn3)ccn2)CC1 [compound 575] | 75.8 nM | 41.5% | 18.6% |
| 1 nM | 33 nM |  | Cn1cncc1-c1ccc2cnc(NC(=O)c3ccc(F)cc3)cc2c1 [compound 580] | ≥ 3000 nM | 59.4% | 24.9% |
| 2 nM | 18 nM |  | Cn1cncc1-c1ccc2cnc(NC(=O)c3ccnc(N4CCN(C5CC5)CC4)c3)cc2c1 [compound 582] | ≥ 3000 nM | 52.2% |  |
| 2 nM | 27 nM |  | CN1Cc2ccc(C(=O)Nc3cc4cc(-c5cncn5C)ccc4cn3)cc2C1 [compound 583] | ≥ 3000 nM | 67.5% |  |
| 2 nM | 70 nM |  | Cc1ncc(-c2ccc3cnc(NC(=O)c4ccc(OC(C)C)cc4)cc3c2)n1C [compound 588] | 10.5 nM | 74.7% |  |
| 4 nM | 40 nM |  | NC1CN(c2cc(C(=O)Nc3cc4cc(-c5cnco5)ccc4cn3)ccn2)C1 [compound 590] | ≥ 3000 nM | 33.2% |  |
| 2 nM | 43 nM |  | O=C(Nc1cc2cc(-c3cncs3)ccc2cn1)c1ccc2c(c1)CNCC2 [compound 592] | ≥ 3000 nM | 29.7% |  |
| 3 nM | 22 nM |  | CN1CCN(c2cc(C(=O)Nc3cc4cc(-c5cnc(N)s5)ccc4cn3)ccn2)CC1 [compound 593] | 0.4 nM | 62.9% |  |
| 2 nM | 14 nM |  | Cc1nnc(-c2ccc3cnc(NC(=O)c4ccnc(C5CCN(C)CC5)c4)cc3c2)s1 [compound 594] | 143 nM | 35.3% |  |

| SMILES | EC50 (CLK2 kinase) | EC50 (CLK3 kinase) | EC50 [2] | EC50 [1] | Emax [1] | Emax [3] |
| --- | --- | --- | --- | --- | --- | --- |
| CN1CCN(c2ccc(C(=O)Nc3cc4cc(-c5cnn6c5CN(CCF)CC6)ccc4cn3)cn2)CC1 [compound 576] | 2 nM | 81 nM |  | ≥ 3000 nM | 62.6% |  |
